In US20220306695A1, “COMPSTATIN ANALOGUES AND THEIR MEDICAL USES” (priority 2019, published 2022):
Starred links: 1 amine or outer side, 2 acyl side, 3 side chain; linkers in the order of their positions; H or OH if unused. Positions of bridges follow the written chain, without caps; N, C: chain ends. Non-standard residues stand in square brackets, D forms with d. Residues, ends and D or L forms follow the SMILES beside them. Groups on a side chain read outwards from the residue. *: point of attachment. C20 diacid = O=C(O)CCCCCCCCCCCCCCCCCCC(=O)*; Trp(1-Me) = Cn1cc(C[C@H](N)C(=O)O)c2ccccc21; C18 diacid = O=C(O)CCCCCCCCCCCCCCCCC(=O)*; C16 diacid = O=C(O)CCCCCCCCCCCCCCC(=O)*; γGlu = O=C(O)[C@H](CCC(=O)[*:2])N[*:1]; AEEA = NCCOCCOCC(=O)O; Sar = CNCC(=O)O

Tests used:
[1] = system: classical complement pathway; assay: In vitro haemolysis assay (inhibition of classical complement pathway); format: cell-based, human; details: Table 3; human serum, sensitized sheep red blood cells; read-out: IC50[nM], in vitro analysis of inhibition of hemolysis
In short: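 Serially diluted compound (9 points) was preincubated 15 min at room temperature with diluted human serum, titrated per batch to give 70-90% maximal haemolysis, in Tris/casein buffer pH 7.4 with Mg2+/Ca2+. Antibody-sensitized sheep erythrocytes were then added for 30 min at 37° C, and the reaction was stopped with EDTA. Haemolysis was read at A405, with IC50 from 4PL fit.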

[2] = Solubility test at 10 mg/mL (visual inspection and light scattering); format: physicochemical; details: for Solubility, Condition 1 Acetate pH 4: 10 mg/mL compound in 100 mM acetate pH 4; for Solubility, Condition 2 Acetate pH 5: 10 mg/mL compound in 100 mM acetate pH 5; for Solubility, Condition 3 Phosphate pH 6: 10 mg/mL compound in 100 mM phosphate pH 6; for Solubility, Condition 4 Phosphate pH 7: 10 mg/mL compound in 100 mM phosphate pH 7; for Solubility, Condition 5 Phosphate pH 7.5: 10 mg/mL compound in 100 mM phosphate pH 7.5
[3] = target: Human C3 (human, UniProt P01024 23-1663); assay: cell-based or functional assay
Chain of Human C3 (P01024 23-1663 limits assumed): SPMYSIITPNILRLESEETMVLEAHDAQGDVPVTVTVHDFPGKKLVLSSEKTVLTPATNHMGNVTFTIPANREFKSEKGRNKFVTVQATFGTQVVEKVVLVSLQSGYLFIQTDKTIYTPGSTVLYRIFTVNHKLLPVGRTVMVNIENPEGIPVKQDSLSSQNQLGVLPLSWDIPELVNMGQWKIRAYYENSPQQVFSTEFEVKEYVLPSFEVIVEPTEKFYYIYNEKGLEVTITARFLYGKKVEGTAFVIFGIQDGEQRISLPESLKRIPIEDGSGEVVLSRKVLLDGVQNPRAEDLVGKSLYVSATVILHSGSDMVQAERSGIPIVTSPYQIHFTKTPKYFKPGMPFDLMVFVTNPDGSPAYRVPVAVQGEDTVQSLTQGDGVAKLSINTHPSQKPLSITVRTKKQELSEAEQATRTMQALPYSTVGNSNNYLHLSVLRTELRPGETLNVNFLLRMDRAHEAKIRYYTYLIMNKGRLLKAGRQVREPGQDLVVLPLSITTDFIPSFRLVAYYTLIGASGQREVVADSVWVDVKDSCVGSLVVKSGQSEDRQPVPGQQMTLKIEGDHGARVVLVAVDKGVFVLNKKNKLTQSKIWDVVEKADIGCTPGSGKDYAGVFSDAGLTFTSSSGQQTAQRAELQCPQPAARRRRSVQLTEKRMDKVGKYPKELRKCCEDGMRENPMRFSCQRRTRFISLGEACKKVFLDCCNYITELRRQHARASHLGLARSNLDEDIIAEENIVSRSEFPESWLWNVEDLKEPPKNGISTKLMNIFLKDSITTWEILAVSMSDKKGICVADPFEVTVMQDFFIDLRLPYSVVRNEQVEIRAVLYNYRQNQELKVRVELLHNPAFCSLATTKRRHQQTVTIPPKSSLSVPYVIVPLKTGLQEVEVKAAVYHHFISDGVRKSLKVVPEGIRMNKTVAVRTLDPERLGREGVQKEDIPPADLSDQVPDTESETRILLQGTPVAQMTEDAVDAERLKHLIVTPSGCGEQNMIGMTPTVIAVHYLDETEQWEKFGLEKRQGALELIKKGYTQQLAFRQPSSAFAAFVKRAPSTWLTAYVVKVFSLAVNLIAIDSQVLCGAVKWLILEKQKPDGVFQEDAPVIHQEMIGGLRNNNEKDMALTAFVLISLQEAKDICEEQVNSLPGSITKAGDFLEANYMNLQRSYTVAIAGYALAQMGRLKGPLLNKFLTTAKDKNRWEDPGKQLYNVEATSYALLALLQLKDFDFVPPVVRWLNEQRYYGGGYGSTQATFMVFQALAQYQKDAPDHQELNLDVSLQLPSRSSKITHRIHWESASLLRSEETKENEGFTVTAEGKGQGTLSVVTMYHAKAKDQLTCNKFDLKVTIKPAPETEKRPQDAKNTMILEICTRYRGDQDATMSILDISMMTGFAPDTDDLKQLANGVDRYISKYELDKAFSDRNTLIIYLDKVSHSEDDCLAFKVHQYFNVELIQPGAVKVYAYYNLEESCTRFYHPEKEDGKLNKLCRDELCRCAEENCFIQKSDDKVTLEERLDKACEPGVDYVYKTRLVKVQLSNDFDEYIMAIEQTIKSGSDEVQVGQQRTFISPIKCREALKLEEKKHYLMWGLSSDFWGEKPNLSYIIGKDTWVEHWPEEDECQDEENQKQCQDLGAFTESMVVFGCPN

With `CC[C@H](C)[C@@H]1NC(=O)[C@@H](NC(=O)[C@H](Cc2ccc(O)cc2)NC(=O)[C@H](C)NC(=O)[C@H](CO)NC(=O)CNC(=O)[C@H](CCC(=O)O)NC(C)=O)CSSC[C@@H](C(=O)N(C)CC(=O)N[C@@H](CCC(=O)O)C(N)=O)NC(=O)[C@H](CCCCNC(=O)COCCOCCNC(=O)COCCOCCNC(=O)CC[C@H](NC(=O)CCCCCCCCCCCCCCC(=O)O)C(=O)O)NC(=O)[C@H](Cc2c[nH]cn2)NC(=O)[C@H](CCC(=O)O)NC(=O)CNC(=O)[C@H](Cc2c[nH]c3ccccc23)NC(=O)[C@H](CC(=O)O)NC(=O)[C@H](CCC(N)=O)NC(=O)[C@H](Cc2cn(C)c3ccccc23)NC1=O` [Compound 103, Ac-EGSAYC(1)I[1-Me-Trp]QDWGEH-[K([15-carboxy-pentadecanoyl][γGlu][Peg3][Peg3])]-C(1)[Sar]E-NH2] (Ac-EGSAYCI[Trp(1-Me)]QDWGEHK([AEEA-AEEA-γGlu-C16 diacid])C[Sar]E-NH2; disulfide 6-16) the IC50 [1] was < 100 nM, the “Solubility, Condition 1 Acetate pH 4” value [2] was “− (denotes lack of solubility at the given condition, as UV absorbance at 340 nm exceeds 0.1 AU and/or it is visibly turbid or contains particles.)” and the “Solubility, Condition 2 Acetate pH 5” value [2] was “+ (denotes solubility at the given condition, as determined by UV absorbance being less than 0.1 AU at 340 nm and the sample being clear when manually inspected.)”. For the same molecule, the “Solubility, Condition 3 Phosphate pH 6” value [2] was “+ (denotes solubility at the given condition, as determined by UV absorbance being less than 0.1 AU at 340 nm and the sample being clear when manually inspected.)”, the “Solubility, Condition 4 Phosphate pH 7” value [2] was “+ (denotes solubility at the given condition, as determined by UV absorbance being less than 0.1 AU at 340 nm and the sample being clear when manually inspected.)” and the “Solubility, Condition 5 Phosphate pH 7.5” value [2] was “+ (denotes solubility at the given condition, as determined by UV absorbance being less than 0.1 AU at 340 nm and the sample being clear when manually inspected.)”.

With `CC[C@H](C)[C@H](NC(=O)[C@H](C)NC(=O)[C@H](CO)NC(=O)CNC(=O)[C@H](CCC(=O)O)NC(C)=O)C(=O)N[C@H]1CSSC[C@@H](C(=O)N[C@H](C(=O)N[C@@H](CCC(=O)O)C(N)=O)[C@@H](C)O)NC(=O)[C@H](CCCNC(=N)N)NC(=O)[C@H](Cc2c[nH]cn2)NC(=O)[C@H](CCC(=O)O)NC(=O)CNC(=O)[C@H](Cc2c[nH]c3ccccc23)NC(=O)[C@H](CC(=O)O)NC(=O)[C@H](CCC(N)=O)NC(=O)[C@H](Cc2c[nH]c3ccccc23)NC(=O)[C@H]([C@@H](C)CC)NC1=O` [Compound 55] (Ac-EGSAICIWQDWGEHRCTE-NH2; disulfide 6-16) the IC50 [1] was < 250 nM, the “Solubility, Condition 1 Acetate pH 4” value [2] was “− (denotes lack of solubility at the given condition, as UV absorbance at 340 nm exceeds 0.1 AU and/or it is visibly turbid or contains particles.)” and the “Solubility, Condition 2 Acetate pH 5” value [2] was “− (denotes lack of solubility at the given condition, as UV absorbance at 340 nm exceeds 0.1 AU and/or it is visibly turbid or contains particles.)”. The “Solubility, Condition 3 Phosphate pH 6” value [2] was “+ (denotes solubility at the given condition, as determined by UV absorbance being less than 0.1 AU at 340 nm and the sample being clear when manually inspected.)”, the “Solubility, Condition 4 Phosphate pH 7” value [2] was “+ (denotes solubility at the given condition, as determined by UV absorbance being less than 0.1 AU at 340 nm and the sample being clear when manually inspected.)” and the “Solubility, Condition 5 Phosphate pH 7.5” value [2] was “+ (denotes solubility at the given condition, as determined by UV absorbance being less than 0.1 AU at 340 nm and the sample being clear when manually inspected.)”.

B1: Compound 97 (peptide)
peptide: Ac-ICIWQDWGEHRCTEGEK([AEEA-AEEA-γGlu-C18 diacid])-NH2
modifications: disulfide 2-12
SMILES: CC[C@H](C)[C@H](NC(C)=O)C(=O)N[C@H]1CSSC[C@@H](C(=O)N[C@H](C(=O)N[C@@H](CCC(=O)O)C(=O)NCC(=O)N[C@@H](CCC(=O)O)C(=O)N[C@@H](CCCCNC(=O)COCCOCCNC(=O)COCCOCCNC(=O)CC[C@H](NC(=O)CCCCCCCCCCCCCCCCC(=O)O)C(=O)O)C(N)=O)[C@@H](C)O)NC(=O)[C@H](CCCNC(=N)N)NC(=O)[C@H](Cc2c[nH]cn2)NC(=O)[C@H](CCC(=O)O)NC(=O)CNC(=O)[C@H](Cc2c[nH]c3ccccc23)NC(=O)[C@H](CC(=O)O)NC(=O)[C@H](CCC(N)=O)NC(=O)[C@H](Cc2c[nH]c3ccccc23)NC(=O)[C@H]([C@@H](C)CC)NC1=O
In the case of B1, the “IC50[nM], inhibition of hemolysis” value [3] is reported as < 250 nM.

B2: Compound 98 (peptide)
peptide: Ac-ICIWQDWGEHRCTEGK([AEEA-AEEA-γGlu-C20 diacid])-NH2
modifications: disulfide 2-12
SMILES: CC[C@H](C)[C@H](NC(C)=O)C(=O)N[C@H]1CSSC[C@@H](C(=O)N[C@H](C(=O)N[C@@H](CCC(=O)O)C(=O)NCC(=O)N[C@@H](CCCCNC(=O)COCCOCCNC(=O)COCCOCCNC(=O)CC[C@H](NC(=O)CCCCCCCCCCCCCCCCCCC(=O)O)C(=O)O)C(N)=O)[C@@H](C)O)NC(=O)[C@H](CCCNC(=N)N)NC(=O)[C@H](Cc2c[nH]cn2)NC(=O)[C@H](CCC(=O)O)NC(=O)CNC(=O)[C@H](Cc2c[nH]c3ccccc23)NC(=O)[C@H](CC(=O)O)NC(=O)[C@H](CCC(N)=O)NC(=O)[C@H](Cc2c[nH]c3ccccc23)NC(=O)[C@H]([C@@H](C)CC)NC1=O
In the case of B2, the “IC50[nM], inhibition of hemolysis” value [3] is reported as < 500 nM.

B3: Compound 95 (peptide)
peptide: ICIWQDWGEHRCTEGK
modifications: N-acetyl; C-terminal amide; disulfide C2-C12; K16 side chain bears (15-carboxy-pentadecanoyl)-[(Piperazine-1-yl)-acetyl][Peg3][Peg3]
In the case of B3, the “IC50[nM], inhibition of hemolysis” value [3] is reported as < 500 nM.

B4: Compound 4 (peptide)
peptide: Ac-ICI[Trp(1-Me)]QDWGEHRCT-NH2
modifications: disulfide 2-12
SMILES: CC[C@H](C)[C@H](NC(C)=O)C(=O)N[C@H]1CSSC[C@@H](C(=O)N[C@H](C(N)=O)[C@@H](C)O)NC(=O)[C@H](CCCNC(=N)N)NC(=O)[C@H](Cc2c[nH]cn2)NC(=O)[C@H](CCC(=O)O)NC(=O)CNC(=O)[C@H](Cc2c[nH]c3ccccc23)NC(=O)[C@H](CC(=O)O)NC(=O)[C@H](CCC(N)=O)NC(=O)[C@H](Cc2cn(C)c3ccccc23)NC(=O)[C@H]([C@@H](C)CC)NC1=O
For B4, the “IC50[nM], inhibition of hemolysis” value [3] was < 100 nM.

B5: Compound 5 (peptide)
peptide: Ac-ICIWQDWGKHRCT-NH2
modifications: disulfide 2-12
SMILES: CC[C@H](C)[C@H](NC(C)=O)C(=O)N[C@H]1CSSC[C@@H](C(=O)N[C@H](C(N)=O)[C@@H](C)O)NC(=O)[C@H](CCCNC(=N)N)NC(=O)[C@H](Cc2c[nH]cn2)NC(=O)[C@H](CCCCN)NC(=O)CNC(=O)[C@H](Cc2c[nH]c3ccccc23)NC(=O)[C@H](CC(=O)O)NC(=O)[C@H](CCC(N)=O)NC(=O)[C@H](Cc2c[nH]c3ccccc23)NC(=O)[C@H]([C@@H](C)CC)NC1=O
For B5, the “IC50[nM], inhibition of hemolysis” value [3] was < 250 nM.

B6: Compound 101 (peptide)
peptide: Ac-EGSAICIWQDWGEHRCTEGK([γGlu-C16 diacid])-NH2
modifications: disulfide 6-16
SMILES: CC[C@H](C)[C@H](NC(=O)[C@H](C)NC(=O)[C@H](CO)NC(=O)CNC(=O)[C@H](CCC(=O)O)NC(C)=O)C(=O)N[C@H]1CSSC[C@@H](C(=O)N[C@H](C(=O)N[C@@H](CCC(=O)O)C(=O)NCC(=O)N[C@@H](CCCCNC(=O)CC[C@H](NC(=O)CCCCCCCCCCCCCCC(=O)O)C(=O)O)C(N)=O)[C@@H](C)O)NC(=O)[C@H](CCCNC(=N)N)NC(=O)[C@H](Cc2c[nH]cn2)NC(=O)[C@H](CCC(=O)O)NC(=O)CNC(=O)[C@H](Cc2c[nH]c3ccccc23)NC(=O)[C@H](CC(=O)O)NC(=O)[C@H](CCC(N)=O)NC(=O)[C@H](Cc2c[nH]c3ccccc23)NC(=O)[C@H]([C@@H](C)CC)NC1=O
In the case of B6, the “IC50[nM], inhibition of hemolysis” value [3] is reported as < 500 nM.

B7: Compound 96 (peptide)
peptide: Ac-ICIWQDWGEHRCTEGK([AEEA-AEEA-γGlu-C18 diacid])-NH2
modifications: disulfide 2-12
SMILES: CC[C@H](C)[C@H](NC(C)=O)C(=O)N[C@H]1CSSC[C@@H](C(=O)N[C@H](C(=O)N[C@@H](CCC(=O)O)C(=O)NCC(=O)N[C@@H](CCCCNC(=O)COCCOCCNC(=O)COCCOCCNC(=O)CC[C@H](NC(=O)CCCCCCCCCCCCCCCCC(=O)O)C(=O)O)C(N)=O)[C@@H](C)O)NC(=O)[C@H](CCCNC(=N)N)NC(=O)[C@H](Cc2c[nH]cn2)NC(=O)[C@H](CCC(=O)O)NC(=O)CNC(=O)[C@H](Cc2c[nH]c3ccccc23)NC(=O)[C@H](CC(=O)O)NC(=O)[C@H](CCC(N)=O)NC(=O)[C@H](Cc2c[nH]c3ccccc23)NC(=O)[C@H]([C@@H](C)CC)NC1=O
With B7 the “IC50[nM], inhibition of hemolysis” value [3] was < 1000 nM.

B8: Compound 99 (peptide)
peptide: {15‑Carboxy‑pentadecanoyl}-ESSAICIWQDWGEHRCTEGE-NH2
modifications: disulfide 6-16
With B8 the “IC50[nM], inhibition of hemolysis” value [3] was < 250 nM.

B9: Compound 94 (peptide)
peptide: Ac-ICIWQDWGEHRCTEGEK([AEEA-AEEA-γGlu-C16 diacid])-NH2
modifications: disulfide 2-12
SMILES: CC[C@H](C)[C@H](NC(C)=O)C(=O)N[C@H]1CSSC[C@@H](C(=O)N[C@H](C(=O)N[C@@H](CCC(=O)O)C(=O)NCC(=O)N[C@@H](CCC(=O)O)C(=O)N[C@@H](CCCCNC(=O)COCCOCCNC(=O)COCCOCCNC(=O)CC[C@H](NC(=O)CCCCCCCCCCCCCCC(=O)O)C(=O)O)C(N)=O)[C@@H](C)O)NC(=O)[C@H](CCCNC(=N)N)NC(=O)[C@H](Cc2c[nH]cn2)NC(=O)[C@H](CCC(=O)O)NC(=O)CNC(=O)[C@H](Cc2c[nH]c3ccccc23)NC(=O)[C@H](CC(=O)O)NC(=O)[C@H](CCC(N)=O)NC(=O)[C@H](Cc2c[nH]c3ccccc23)NC(=O)[C@H]([C@@H](C)CC)NC1=O
For B9, the “IC50[nM], inhibition of hemolysis” value [3] was < 500 nM.
